The subject of one series is HUVEC. Nature of the series: HUVEC cell growth. The series is classed as cell-based, human. The conditions noted are these: 0.25 μM and 1 μM, FIG. 11. The protocol:
(§1) Approximately 48 hours following plating of cells, the appropriate test compound is added to each well of the tissue culture dish at a predetermined concentration. The medium was replenished every 24 hours with fresh growth medium containing the same concentration of the same test compound for indicated period of the cell growth inhibition assay. Percent cell growth inhibition was calculated using a hemocytometer for estimating cell density in each of the test wells of the tissue culture dish and trypan blue dye exclusion microscopy and photography to estimate the fraction of viable cells in each test well.

The test system of series [1] is PSA. In words: Inhibition of endogenous PSA protein in LNCaP cells (Western blot). The settings on record: ERG negative LNCaP; 0.25 μM and 1 μM; FIG. 4. The series is classed as cell-based. How it is done:
(§2) To investigate whether the azophenol compounds of the invention are selective inhibitors of ERG protein expression, representative azophenol compounds were further tested for its ability to inhibit AR and PSA activity in the following AR positive/ERG negative prostate cancer cell lines: LNCaP (mutant AR positive and ERG negative), as well as in LAPC4 cells that are AR (wild type) positive and ERG negative.
(§3) Inhibition of ERG protein expression by the test compounds were determined by Western blot analysis. The ERG specific monoclonal antibody CPDR ERG-MAb was used as the primary antibody. In brief, Western blot was performed by running a fixed amount of total protein extracted from cell lysates of the treated cells using (4-12% Bis-Tris) gel by electrophoresis, followed by transfer to membrane and incubation with primary antibody and continued with HRP-conjugated secondary antibody. Cultured cells were treated at specific dosages with each of the tested ERG inhibitors. Following incubation of the treated cells for an indicated time period, cells were lysed using Mammalian Protein Extraction Reagent (M-PER; Pierce, Rockford, Ill.) containing a protease inhibitor cocktail and phosphatase inhibitor cocktails I & III (Sigma, St Louis, Mo.). […]
(In general: In western blotting, separated proteins are transferred to a membrane and probed.)

The target in series [2] is T1, ERG protein (Homo sapiens, UniProt P11308).
T1 sequence (P11308 1-479): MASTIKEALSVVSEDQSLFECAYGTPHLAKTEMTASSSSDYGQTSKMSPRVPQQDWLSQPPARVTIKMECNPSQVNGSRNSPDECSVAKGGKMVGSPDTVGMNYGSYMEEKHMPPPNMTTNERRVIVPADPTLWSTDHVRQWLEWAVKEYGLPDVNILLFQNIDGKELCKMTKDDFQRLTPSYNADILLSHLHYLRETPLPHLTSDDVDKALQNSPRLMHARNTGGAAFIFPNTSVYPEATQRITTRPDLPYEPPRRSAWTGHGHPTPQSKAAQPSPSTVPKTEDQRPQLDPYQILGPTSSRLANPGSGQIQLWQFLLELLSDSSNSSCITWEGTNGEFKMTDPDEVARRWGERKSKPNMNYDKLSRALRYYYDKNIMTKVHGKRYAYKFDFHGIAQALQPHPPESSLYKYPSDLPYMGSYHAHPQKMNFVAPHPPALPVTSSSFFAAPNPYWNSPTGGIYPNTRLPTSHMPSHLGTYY
In words: Inhibition of ERG protein in HUVEC normal endothelial cells (Western blot). The conditions noted are these: 0.25 μM and 1 μM, FIG. 10. The class given is cell-based. The protocol: as §3, with “Mo.). Cell lysates containing 50 μg of total protein were electrophoresed through 4-12% Bis-Tris Gel (Invitrogen, Carlsbad, Calif.) and the cellular proteins were transferred to PVDF membrane (Invitrogen, Carlsbad, Calif.). Membranes were incubated at 4° C. for 12 hours with primary antibodies for AR, PSA, GAPDH, α-Tubulin, apoptosis markers and cell cycle regulators.” for “Mo.).”

Series [3] concerns PSA. In words: Inhibition of endogenous PSA protein in VCaP cells (Western blot). The series is classed as cell-based. The settings on record: 0.25 μM and 1 μM, FIG. 2. The protocol: as §3, with “Mo.). Cell lysates containing 50 μg of total protein were electrophoresed through 4-12% Bis-Tris Gel (Invitrogen, Carlsbad, Calif.) and the cellular proteins were transferred to PVDF membrane (Invitrogen, Carlsbad, Calif.). Membranes were incubated at 4° C. for 12 hours with primary antibodies for AR, PSA, GAPDH, α-Tubulin, apoptosis markers and cell cycle regulators.” for “Mo.).”

Series [4] concerns the target T2, ERG protein (Homo sapiens, UniProt P11308).
T2 construct: host or cells: VCaP
T2 sequence (P11308 33-479 limits assumed): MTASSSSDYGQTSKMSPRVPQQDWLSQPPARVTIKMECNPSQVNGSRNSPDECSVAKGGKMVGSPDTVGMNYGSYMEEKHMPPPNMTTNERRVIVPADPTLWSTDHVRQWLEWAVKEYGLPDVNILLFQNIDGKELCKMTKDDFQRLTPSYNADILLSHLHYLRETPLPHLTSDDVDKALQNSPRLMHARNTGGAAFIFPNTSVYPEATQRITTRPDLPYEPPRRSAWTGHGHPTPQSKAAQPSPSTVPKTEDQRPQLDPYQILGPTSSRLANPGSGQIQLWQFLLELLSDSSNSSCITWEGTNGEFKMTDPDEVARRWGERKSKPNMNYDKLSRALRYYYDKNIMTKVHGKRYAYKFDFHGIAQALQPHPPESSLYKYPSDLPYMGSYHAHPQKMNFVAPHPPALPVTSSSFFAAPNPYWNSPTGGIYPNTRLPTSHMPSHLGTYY
Nature of the series: Inhibition of ERG protein in VCaP cells (Western blot). The class given is cell-based. The conditions noted are these: for inhibition of ERG protein in VCaP cells: 0.1, 0.2, 0.4, 0.6, 0.8 and 1 μM, FIG. 13, 16; for inhibition of endogenous ERG protein: VCaP, 0.25 μM and 1 μM, FIG. 2. How it is done: The TMPRSS2-ERG fusion positive prostate cancer cell line, VCaP (ATCC), was used to identify the test compound inhibitors of ERG expression. Cells were grown in medium using conditions prescribed by the vendor. VCaP cells in logarithmic growth were seeded in a tissue culture dish at a cell density of 2×10^6 cells per plate. Following 48 hours incubation at 37° C., cells were exposed for a period of 48 hours with 0, 0.05, 0.25 and 0.5 μM concentrations of each test azophenol compound. The inhibition of ERG expression was evaluated by an In-cell Western blot assay (LI-COR Biosciences, Lincoln, Nebr.) using the ERG specific CPDR ERG-MAb as further described below.
(§4) Inhibition of ERG protein expression by the test compounds were determined by Western blot analysis. The ERG specific monoclonal antibody CPDR ERG-MAb was used as the primary antibody. In brief, Western blot was performed by running a fixed amount of total protein extracted from cell lysates of the treated cells using (4-12% Bis-Tris) gel by electrophoresis, followed by transfer to membrane and incubation with primary antibody and continued with HRP-conjugated secondary antibody. Cultured cells were treated at specific dosages with each of the tested ERG inhibitors. Following incubation of the treated cells for an indicated time period, cells were lysed using Mammalian Protein Extraction Reagent (M-PER; Pierce, Rockford, Ill.) containing a protease inhibitor cocktail and phosphatase inhibitor cocktails I & III (Sigma, St Louis, Mo.). Cell lysates containing 50 μg of total protein were electrophoresed through 4-12% Bis-Tris Gel (Invitrogen, Carlsbad, Calif.) and the cellular proteins were transferred to PVDF membrane (Invitrogen, Carlsbad, Calif.). Membranes were incubated at 4° C. for 12 hours with primary antibodies for AR, PSA, GAPDH, α-Tubulin, apoptosis markers and cell cycle regulators. Following exposure to primary antibodies, the membranes were washed with buffer (3×, 5 minutes each at room temperature) followed by incubation with relevant secondary antibodies for 1 hour at 24° C. Finally, the membranes were washed with buffer and developed using the ECL Western blot detection reagent (GE Health Care, Buckinghamshire, UK). The ERG protein expression of the test azophenol compounds were normalized with GAPDH.
In brief, ERG positive VCaP cells in loganthmic growth phase were plated in 10 cm tissue culture dish at a cell density of 2×10^6 cells per dish. The plated cells were treated with 0, 0.2, 0.4, 0.6, 0.8 and 1 μM concentrations of each azophenol compound for a period of 48 hours. Cells from each dish were then processed for Western blot analysis and alterations in the expression of ERG protein were monitored. Both ERG and GAPDH protein band were quantified from each concentration using Image J (NIH) and ERG band density was normalized with corresponding GAPDH protein control. Relative density of ERG in each concentration was calculated and with Graphpad Prism 6 software, the IC50 of each compound was calculated.

The test system of series [5] is AR. In words: Inhibition of endogenous AR protein in LNCaP cells (Western blot). The series is classed as cell-based. The conditions noted are these: ERG negative LNCaP; 0.25 μM and 1 μM; FIG. 4. How it is done:
as §2, §3

A further series has as its system COLO320 cells. Nature of the series: COLO320 cell growth. The settings on record: 0.25 μM and 1 μM, FIG. 9. The series is classed as cell-based. How it is done:
as §1

A further series relates to BPH-1 cells. In words: BPH-1 cell growth. The series is classed as cell-based. The conditions noted are these: 0.25 μM and 1 μM, FIG. 12. The protocol: as §1
The subject of series [6] is AR. Nature of the series: Inhibition of endogenous AR protein in VCaP cells (Western blot). The conditions noted are these: 0.25 μM and 1 μM, FIG. 2. The class given is cell-based. The protocol:
as §4, with “Following exposure to primary antibodies, the membranes were washed with buffer (3×, 5 minutes each at room temperature) followed by incubation with relevant secondary antibodies for 1 hour at 24° C. Finally, the membranes were washed with buffer and developed using the ECL Western blot detection reagent (GE Health Care, Buckinghamshire, UK). The ERG protein expression of the test azophenol compounds were normalized with GAPDH.” left out

As to `CC(C)c1ccc(O)c(N=Nc2nccs2)c1` [Compound 1], in the series on HUVEC, the “growth of ERG harboring normal endothelial cells” value is listed as “do not affect the growth”. Further, the “inhibition of endogenous PSA protein” value in the series with PSA [1] is given as “lack of inhibition”; in the series on PSA [3], “inhibition”. The “inhibition of ERG protein” value at ERG protein [2] was “lack of inhibition”. The “inhibition of ERG protein in VCaP cells” value at ERG protein [4] is on record as “inhibition”. Moreover, the “inhibition of endogenous ERG protein” value on ERG protein [4] is “inhibition”. Further, the entries for the “inhibition of endogenous AR protein” value in the series with AR [5] and with AR [6] were “lack of inhibition” and “inhibition”, respectively. For the same molecule, in the series with COLO320 cells, the “inhibition of growth of ERG harboring colon cancer cells” value is “inhibition”. The “growth of ERG negative prostate-derived immortalized cells” value in the series on BPH-1 cells is listed as “do not affect the growth”.

Turning to `Cc1ccc(O)c(N=Nc2nccs2)c1` [Compound 2], the “growth of ERG harboring normal endothelial cells” value with HUVEC was “do not affect the growth”. The “inhibition of endogenous PSA protein” value is “lack of inhibition” in the series with PSA [1] and “inhibition” with PSA [3]. Besides, the “inhibition of ERG protein” value against ERG protein [2] is “lack of inhibition”. Further, the “inhibition of ERG protein in VCaP cells” value against ERG protein [4] is reported as “inhibition”. In addition, the “inhibition of endogenous ERG protein” value at ERG protein [4] is reported as “inhibition”. Also, the “inhibition of endogenous AR protein” value is given as “lack of inhibition” in the series on AR [5] and “inhibition” in the series on AR [6]. The “inhibition of growth of ERG harboring colon cancer cells” value in the series on COLO320 cells is “inhibition”. Besides, the “growth of ERG negative prostate-derived immortalized cells” value with BPH-1 cells is listed as “do not affect the growth”.

Source of the values: US11648239B2, “Azophenols as ERG oncogene inhibitors” (The Henry M. Jackson Foundation for the Advancement of …, priority 2015, dated 2023).
